# Assays:
# [1] = Body weight in the HCC1806 xenograft study; assay type: in vivo, BALB/c nude mice; conditions: group mean, 30 mg/kg P.O. BID; for Body weight D0: day 0; for Body weight D3: day 3; for Body weight D7: day 7; for Body weight D10: day 10; for Body weight D14: day 14; for Body weight D17: day 17; for Body weight D21: day 21
# Method: (§1) When the average tumor volume reached 80-120 mm^3, 42 tumor-bearing mice were randomized into 7 groups (6 mice per group) according to tumor volume. The grouping day was defined as Day 0. Treatment was applied immediately after grouping animals on the same day.
# (§2) The body weight of the testing animals were measured twice a week after grouping. Tumor volumes by the length and width of the tumor were measured by electric calipers and the tumor volume (V) was calculated as follows: V=(length×width^2)/2. The individual relative tumor volume (RTV) was calculated as follows: RTV=Vt/V0, where Vt was the volume on each day, and V0 was the volume at the beginning of the treatment.
# (§3) Results were expressed as mean±S.E.M. Comparisons between two groups were made by corresponding test, p<0.05 were considered to be significant.
# HCC1806 s.c. xenografts = assay: HCC1806 s.c. breast cancer xenograft efficacy (tumor volume, relative tumor volume, tumor weight, TGI); assay type: in vivo, BALB/c nude mice; conditions: 30 mg/kg P.O. BID; for Tumor Growth Inhibition D3 / Tumor Growth Inhibition D7 / Tumor Growth Inhibition D10 / Tumor Growth Inhibition D14 / Tumor Growth Inhibition D17 / Tumor Growth Inhibition D21: vs control vehicle; for Tumor Growth Inhibition D3 / Tumor volume D3: day 3; for Tumor Growth Inhibition D7 / Tumor volume D7: day 7; for Tumor Growth Inhibition D10 / Tumor volume D10: day 10; for Tumor Growth Inhibition D14 / Tumor volume D14: day 14; for Tumor Growth Inhibition D17 / Tumor volume D17: day 17; for Tumor Growth Inhibition D21 / Tumor volume D21: day 21; for Tumor volume D0 / Tumor volume D3 / Tumor volume D7 / Tumor volume D10 / Tumor volume D14 / Tumor volume D17 / Tumor volume D21 / Tumor weight: group mean; for Tumor volume D0: day 0; for Tumor weight: end of the study (Day 21)
# Method: The in vivo potency of anti-tumor activities of Comp. 4, Comp. 37, Comp. 5, Comp. 28, Comp. 163, and Comp. 164 have been evaluated on the growth of HCC1806 s.c. xenografts in BALB/c nude mice.
# The testing compounds Comp. 4, Comp. 37, Comp. 5, Comp. 28, Comp. 163, and Comp. 164 were prepared according the synthetic routes set forth in the above Examples. The testing formulations for compounds Comp. 4, Comp. 37, Comp. 5, Comp. 28, Comp. 163, and Comp. 164 were prepared as liquid formulation in a liquid vehicle containing 0.1% Tween-80 (purchased form Sinopharm Chemical Reagent Co., Ltd, Lot No. 20190322), 0.5% methyl cellulose (purchased from SIGMA, Lot No. SLBR8963V) in water.
# A total of 42+8 female BALB/c nude mice were ordered from Shanghai LC Laboratory Animal Co. Ltd. The animals were specific pathogen free and approximately 4-5 weeks old upon arrival at PharmaLegacy Laboratories.
# HCC1806 cell cultures were maintained at 37° C. under 5% CO2 in RPMI-1640 medium supplemented with 10% FBS and were subsequently cultured within 10 passages before inoculated into the mice.
# as §1, §2
# Tumors were collected at the end of the study (Day 21), the mice were sacrificed. Tumor was collected, weighed, photographed.
# as §3
# [2] = test system: human breast squamous HCC1806 cell line; assay: CyQUANT Direct cell proliferation assay, HCC1806; assay type: cell-based; conditions: HCC1806, 168 h, 7 days
# From the text: The human ovarian carcinoma OVCAR3 cell line (ATCC HTB-161™) or human breast squamous HCC1806 cell line (ATCC CRL 2335) were obtained from American Type Culture Collection (ATCC), and maintained in culture media according to the supplier's specification.
# The CyQUANT® Direct Cell Proliferation Assay Kit (Invitrogen™, catalog No. G35012) was utilized to test the inhibitory activities of the CDK2 inhibitors described in this disclosure against OVCAR3 or HCC1806 tumor cells.
# CyQUANT® Direct Cell Proliferation Assay: The spent medium from the purchased tumor cell culture plate was removed and the tumor cells were washed with PBS buffer twice. Trypsin (VWR catalog No. 0458-25G) was added to digest the tumor cells until tumor cells appeared round shaped and to dissociate adherent cells from the plate wall in which they are being cultured. Then RPMI-1640 media (HCC1806, Gibco™ catalog No, A10491-01) with 10% fetal bovine serum (FBS) (Hyclone™ catalog No. SV30160.03), or RPMI-1640 media (OVCAR-3, Gibco™ catalog No. 10370-021) with 20% FBS and 0.01 mg/mL insulin was added to stop the trypsin digestion reaction. The tumor cells were lightly agitated with a liquid transfer pipette to cause tumor cells suspended in the culture media. The cells were counted. The complete medium was used to prepare tumor cell suspension.
# OVCAR3 or HCC1806 cells were seeded at 40 μL/well in 384-well plates in growth media containing FBS and cultured 24 hours in the incubator at 37° C., 5% CO2. […] Compound solutions were added by Agilent Bravo liquid handler. […] The control wells contained the growth medium having 0.1% DMSO. Cells were incubated at 37° C., 5% CO2 for 7 days.
# CYQUANT Direct Cell Proliferation Assay (Molecular Probes, Eugene, Oreg.) was then performed following manufacturer's instructions to prepare the detection reagents. 50 μL of detection reagent was aliquot and added to each well and the cells were incubated at 37° C. for 1 hr.
# The cell culture plates were placed on TECAN M1000 microplate reader to detect the fluorescence intensity at 508 nm excitation and 527 nm emission wavelengths. Graphpad Prism 6.0 software was used for data processing, preparing cell growth curve, calculating percentage inhibition on cell growth. IC50 values were calculated by concentration-response curve fitting utilizing a four-parameter analytical method using GraphPad Prism software.
# [3] = In vitro liver microsome stability, mouse; conditions: microsomes, pH 7.4
# Method: (§4) Human liver microsomes (cat. No. 452161), mouse liver microsomes (cat. No. 452701), were purchased from Corning.
# (§5) Samples were analyzed using LC-MS/MS using a SCIEX API 4000 mass spectrometer coupled with Agilent HPLC analytical system. After separation on a ZORBAX XDB-C18 column (5 μm, 50×2.1 mm, column No. 50-282) using an acetonitrile-water gradient system, peaks were analyzed by mass spectroscopy (MS) using ESI ionization in Q1 and Q3 scan mode.
# (§6) The LC and MS are all controlled by Analyst software.
# (§7) The liver microsomes were incubated with 1.0 μM of the testing compound at 37° C. The incubation mixture contained 100 mM PBS buffer (pH=7.4), 3 mM MgCl2 and 1 mM NADPH. The concentration of liver microsome in the incubation mixture was 0.5 mg/mL for testing compound, and 0.2 mg/mL for MDZ and the total volume is 0.2 mL. […] Aliquots were withdrawn at time points of 0 min, 5 min and 20 min for MDZ. The reactions were terminated by transferring the aliquots to a methanol solution containing the internal standard […] for analytical quantification. The quenched samples were analyzed by LC-MS/MS. The incubations were carried out in duplicates. The metabolic stability of the testing compounds by the liver microsomes of human and mice is expressed as elimination half-life (t1/2). The results are shown as the means of duplicate determinations±SD.
# [4] = In vitro liver microsome stability, human; conditions: microsomes
# Method: as §4, §5, §6, §7
smiles,measurement,setting,value
"[2H]C([2H])([2H])c1cc2cnc(NC3([2H])C([2H])([2H])CN(S(=O)(=O)C([2H])([2H])[2H])CC3([2H])[2H])nc2n([C@@H]2CCC[C@@]2(C)O)c1=O [Comp. 163, (−)-8-((1R,2R)-2-hydroxy-2-methylcyclopentyl)-6-(methyl-d3)-2-((1-((methyl-d3)sulfonyl)piperidin-4-yl-3,3,4,5,5-d5)amino)pyrido[2,3-d]pyrimidin-7(8H)-one]",Body weight D0,[1],17.54 g
same,Body weight D3,[1],17.61 g
same,Body weight D7,[1],17.72 g
same,Body weight D10,[1],17.67 g
same,Body weight D14,[1],18.32 g
same,Body weight D17,[1],18.66 g
same,Body weight D21,[1],17.95 g
same,tumor volume compared with G1 vehicle on each day,HCC1806 s.c. xenografts,"significant smaller tumor volume on day 7, 17 and 21"
same,"tumor weight at the end of the study, in words",HCC1806 s.c. xenografts,lighter tumor but no statistic significance
same,Tumor Growth Inhibition D3,HCC1806 s.c. xenografts,38.81%
same,Tumor Growth Inhibition D7,HCC1806 s.c. xenografts,34.97%
same,Tumor Growth Inhibition D10,HCC1806 s.c. xenografts,34.46%
same,Tumor Growth Inhibition D14,HCC1806 s.c. xenografts,30.36%
same,Tumor Growth Inhibition D17,HCC1806 s.c. xenografts,36.67%
same,Tumor Growth Inhibition D21,HCC1806 s.c. xenografts,40.94%
same,Tumor volume D0,HCC1806 s.c. xenografts,110.66 mm^3
same,Tumor volume D3,HCC1806 s.c. xenografts,223.62 mm^3
same,Tumor volume D7,HCC1806 s.c. xenografts,443.83 mm^3
same,Tumor volume D10,HCC1806 s.c. xenografts,702.37 mm^3
same,Tumor volume D14,HCC1806 s.c. xenografts,1048.55 mm^3
same,Tumor volume D17,HCC1806 s.c. xenografts,1257.00 mm^3
same,Tumor volume D21,HCC1806 s.c. xenografts,1397.61 mm^3
same,Tumor weight,HCC1806 s.c. xenografts,2.20 g
"[2H]C([2H])([2H])S(=O)(=O)N1CCC(Nc2ncc3cc(C(F)F)c(=O)n([C@@H]4CCC[C@@]4(C)O)c3n2)CC1 [Comp. 85, (−)-6-(difluoromethyl)-8-((1R,2R)-2-hydroxy-2-methylcyclopentyl)-2-((1-((methyl-d3)sulfonyl)piperidin-4-yl)amino)pyrido[2,3-d]pyrimidin-7(8H)-one]",IC50,[2],84.5 nM
"[2H]C1(Nc2ncc3cc(C(F)F)c(=O)n([C@@H]4CCC[C@@]4(C)O)c3n2)CCN(S(C)(=O)=O)CC1 [Comp. 99, (−)-6-(difluoromethyl)-8-((1R,2R)-2-hydroxy-2-methylcyclopentyl)-2-((1-(methylsulfonyl)piperidin-4-yl-4-d)amino)pyrido[2,3-d]pyrimidin-7(8H)-one]",IC50,[2],65.5 nM
"[2H]C([2H])([2H])S(=O)(=O)N1CCC(Nc2ncc3cc(C)c(=O)n([C@@H]4CCC[C@@]4(C)O)c3n2)CC1 [Comp. 74, (−)-8-((1R,2R)-2-hydroxy-2-methylcyclopentyl)-6-methyl-2-((1-((methyl-d3)sulfonyl)piperidin-4-yl)amino)pyrido[2,3-d]pyrimidin-7(8H)-one]",IC50,[2],83.7 nM
"[2H]C([2H])([2H])c1cc2cnc(NC3([2H])C([2H])([2H])CN(S(C)(=O)=O)CC3([2H])[2H])nc2n([C@@H]2CCC[C@@]2(C)O)c1=O [Comp. 164, (−)-8-((1R,2R)-2-hydroxy-2-methylcyclopentyl)-6-(methyl-d3)-2-((1-(methylsulfonyl)piperidin-4-yl-3,3,4,5,5-d5)amino)pyrido[2,3-d]pyrimidin-7(8H)-one]",Body weight D0,[1],18.47 g
same,Body weight D3,[1],18.47 g
same,Body weight D7,[1],18.70 g
same,Body weight D10,[1],18.37 g
same,Body weight D14,[1],17.86 g
same,Body weight D17,[1],18.20 g
same,Body weight D21,[1],17.29 g
same,"tumor weight at the end of the study, in words",HCC1806 s.c. xenografts,lighter tumor but no statistic significance
same,Tumor Growth Inhibition D3,HCC1806 s.c. xenografts,29.37%
same,Tumor Growth Inhibition D7,HCC1806 s.c. xenografts,15.49%
same,Tumor Growth Inhibition D10,HCC1806 s.c. xenografts,21.94%
same,Tumor Growth Inhibition D14,HCC1806 s.c. xenografts,18.56%
same,Tumor Growth Inhibition D17,HCC1806 s.c. xenografts,29.97%
same,Tumor Growth Inhibition D21,HCC1806 s.c. xenografts,31.27%
same,Tumor volume D0,HCC1806 s.c. xenografts,112.74 mm^3
same,Tumor volume D3,HCC1806 s.c. xenografts,243.14 mm^3
same,Tumor volume D7,HCC1806 s.c. xenografts,545.66 mm^3
same,Tumor volume D10,HCC1806 s.c. xenografts,817.53 mm^3
same,Tumor volume D14,HCC1806 s.c. xenografts,1209.55 mm^3
same,Tumor volume D17,HCC1806 s.c. xenografts,1380.25 mm^3
same,Tumor volume D21,HCC1806 s.c. xenografts,1610.30 mm^3
same,Tumor weight,HCC1806 s.c. xenografts,2.51 g
"Cc1ncc2n1-c1ccc(Cl)cc1C(c1ccccc1F)=NC2 [Midazolam, reference compound]",half-life at 1 μM,[3],4.59 min
same,half-life at 1 μM,[4]; pH 7.4,16.3 min
"[2H]C([2H])([2H])S(=O)(=O)N1CCC(Nc2ncc3ccc(=O)n([C@@H]4CCC[C@@]4(C)O)c3n2)CC1 [Comp. 55, (−)-8-((1R,2R)-2-hydroxy-2-methylcyclopentyl)-2-((1-((methyl-d3)sulfonyl)piperidin-4-yl)amino)pyrido[2,3-d]pyrimidin-7(8H)-one]",half-life at 1 μM,"[4]; human, pH 7.4, t1/2 human",346 min
"[2H]C1([2H])CN(S(C)(=O)=O)CC([2H])([2H])C1Nc1ncc2cc(C)c(=O)n([C@@H]3CCC[C@@]3(C)O)c2n1 [Comp. 67, (−)-8-((1R,2R)-2-hydroxy-2-methylcyclopentyl)-6-methyl-2-((1-(methylsulfonyl)piperidin-4-yl-3,3,5,5-d4)amino)pyrido[2,3-d]pyrimidin-7(8H)-one]",IC50,[2],65.9 nM
"[2H]C(F)(F)c1cc2cnc(NC3CCN(S(=O)(=O)C([2H])([2H])[2H])CC3)nc2n([C@@H]2CCC[C@@]2(C)O)c1=O [Comp. 92, (−)-6-(difluoromethyl-d)-8-((1R,2R)-2-hydroxy-2-methylcyclopentyl)-2-((1-((methyl-d3)sulfonyl)piperidin-4-yl)amino)pyrido[2,3-d]pyrimidin-7(8H)-one]",IC50,[2],67.7 nM
"C[C@@]1(O)CCC[C@H]1n1c(=O)c(C(F)F)cc2cnc(NC3CCN(S(C)(=O)=O)CC3)nc21 (racemic) [Comp. 2, (±)-8-(2-hydroxy-2-methylcyclopentyl)-6-difluoromethyl-2-((1-(methylsulfonyl)piperidin-4-yl)amino)pyrido[2,3-d]pyrimidin-7(8H)-one, reference compound]",IC50,[2],59 nM

# From patent publication US20230242526A1 (Zentaur Therapeutics International Limited, priority 2020, published 2023)
